{"source": "patent US20250066423A1", "about": "“SESTRIN-MAPK COMPLEX INHIBITORS” (Sentcell Ltd, priority 2021, published 2025)", "key": {"[1]": {"tested_on": "influenza specific antibody titres", "assay_type": "in vivo", "conditions": "old mice, single dose along with the vaccine, 2, 4 and 8 weeks after vaccination, versus young mice"}, "recombinant sestrin 3": {"target": "T1, recombinant sestrin 3 (Homo sapiens, UniProt P58005)", "T1 sequence (P58005 1-492)": "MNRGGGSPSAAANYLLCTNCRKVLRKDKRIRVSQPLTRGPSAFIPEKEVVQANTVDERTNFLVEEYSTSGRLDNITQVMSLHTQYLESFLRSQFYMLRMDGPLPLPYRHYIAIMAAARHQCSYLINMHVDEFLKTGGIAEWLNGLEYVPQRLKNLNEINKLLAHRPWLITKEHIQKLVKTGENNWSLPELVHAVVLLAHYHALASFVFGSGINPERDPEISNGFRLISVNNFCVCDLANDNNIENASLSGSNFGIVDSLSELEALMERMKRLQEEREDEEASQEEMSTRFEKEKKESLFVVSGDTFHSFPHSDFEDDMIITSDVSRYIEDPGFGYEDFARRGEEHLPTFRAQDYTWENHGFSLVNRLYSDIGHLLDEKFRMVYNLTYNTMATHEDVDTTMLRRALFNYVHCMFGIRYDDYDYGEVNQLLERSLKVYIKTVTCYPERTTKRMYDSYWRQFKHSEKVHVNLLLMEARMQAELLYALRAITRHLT", "test": "Streptavidin pull-down of biotinylated DOS46L with flag recombinant sestrins", "assay_type": "binding", "conditions": "in vitro", "experimental": "However, it should be considered that direct binding is not a pre-requisite for DOS sestrin inhibitory function.\n(A) Biotinylated DOS46L was mixed with flag recombinant Sestrins, immunoprecipitated with streptavidin and immunoblotted with flag Sestrins. […] Representative images from three experiments are shown. […] (D) DOS46L binds to the entire sMAC complex in CD4 T cells. CD4+ T cells were isolated from PBMCs from healthy donors and treated with biotinylated DOS46L compound (10 uM) for 4 hours. Cells were harvested for immunoprecipitation analysis."}, "H1N1 PR8/54": {"tested_on": "H1N1 PR8/54", "design": "species or system mice", "conditions": "mouse, in vivo"}, "sestrin-AMPK interaction": {"target": "T2, sestrin-AMPK interaction (Homo sapiens, UniProt P58004)", "T2 construct": "endogenous in cells; host or cells: primary CD4+ T cells from PBMCs of healthy donors", "T2 sequence (P58004 1-480)": "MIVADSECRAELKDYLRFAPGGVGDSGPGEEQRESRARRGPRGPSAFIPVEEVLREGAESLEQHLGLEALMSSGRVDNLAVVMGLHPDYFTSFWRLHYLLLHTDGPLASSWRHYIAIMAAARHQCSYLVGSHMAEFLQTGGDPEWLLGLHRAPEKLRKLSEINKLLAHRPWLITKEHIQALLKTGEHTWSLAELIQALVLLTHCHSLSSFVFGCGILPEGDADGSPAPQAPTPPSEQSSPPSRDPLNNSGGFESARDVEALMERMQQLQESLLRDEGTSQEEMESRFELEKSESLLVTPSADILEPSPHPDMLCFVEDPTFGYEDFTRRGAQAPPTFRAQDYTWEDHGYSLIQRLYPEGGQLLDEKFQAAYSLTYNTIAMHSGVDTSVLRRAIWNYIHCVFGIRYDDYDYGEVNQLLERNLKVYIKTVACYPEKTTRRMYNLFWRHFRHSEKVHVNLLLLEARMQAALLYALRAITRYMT", "test": "ELISA coupled to sestrin 2 immunoprecipitation", "assay_type": "cell-based", "experimental": "FIG. 6 illustrates sMAC disruption by DOS46L. (A) CD4+ T cells were purified from PBMCs from healthy donors and treated with DOS46L (10 uM) for the indicated time points. The binding of AMPK to Sestrin 2 was quantified against the total level of Sestrin 2 immunoprecipitated and detected by ELISA. IgG immunoprecipitates served as background control. (B) Cells were pre-treated with proteasome-inhibitor MG-132 (10 uM) for 30 min and subsequently treated with DOS46L (10 uM) for 4 hours. Cells were harvested for immunoblot analysis or proceeded to immunoprecipitation. Levels of Sestrin 2, p38, and AMPK were evaluated by immunoblotting. H3 was used as a loading control. Representative images of 3 experiments are shown. (C) Immunoblot levels of Ubiquitin, Sestrin 2 and Histone 3 in Sestrin 2 immunoprecipitates and their lysates were analysed. Representative images are shown (top). The mean values (bottom) of ubiquitinated proteins in Sestrin 2 immunoprecipitates are shown. Results are presented as a mean±SD of 4 repeated experiments. Student's T-test was used to analyse the data. **p<0.01\n• 1. Cell pellet was lysed with 100 μL of denaturing lysis buffer • 2. Then mixed well by vortexing vigorously for 2-3 sec at maximum speed. • 3. Samples were then boiled at 95° C. for 5 min. • 4. Samples were then diluted 900 μl of non-denaturing lysis buffer and mixed gently. • 5. […]"}, "[2]": {"tested_on": "PBMCs from elderly donors, heat-inactivated SARS-COV2", "test": "COVID-specific antibodies in PBMCs from elderly donors (ELISA)", "assay_type": "cell-based, human", "conditions": "PBMCs from elderly donors (75-95 years), 10 uM"}}, "note": "Peptide text beside a SMILES is read from it."}
{"smiles": "CC[C@H](C)[C@@H]1NC(=O)[C@H](Cc2ccccc2)NC(=O)[C@H](C)NC(=O)[C@H](C(C)C)NC(=O)[C@@H]2CCCN2C1=O", "note": "[DOS46L] (cyclo(AFIPV))", "values": [{"measurement": "influenza specific antibody titres", "setting": "[1]", "value": "completely restored"}, {"measurement": "direct binding to recombinant sestrin 3", "setting": "recombinant sestrin 3", "value": "does not directly bind"}, {"measurement": "protection from lethal viral challenge without vaccine", "setting": "H1N1 PR8/54", "value": "prevented death"}, {"measurement": "binding of AMPK to Sestrin 2", "setting": "sestrin-AMPK interaction; CD4+ T cells, 10 uM, 1 or 2 hours of treatment", "value": "decreased"}, {"measurement": "sestrin-AMPK interaction", "setting": "sestrin-AMPK interaction; compound added directly to the sestrin immunoprecipitates in vitro", "value": "disrupted"}, {"measurement": "COVID-specific IgG antibodies", "setting": "[2]", "value": "stimulation of COVID-specific antibodies"}]}
